Assay results as given in patent US12429487B2, “Neurofilament protein for guiding therapeutic intervention in amyotrophic lateral sclerosis” (Biogen MA Inc., priority 2018, dated 2025).
“Also recorded” adds a separate entry of the source. Read-outs that look alike come from different tables or passages of the source. Oligonucleotides are written 5' to 3', each unit as a sugar letter and its base; * is a phosphorothioate linkage, no mark a phosphodiester; rarer units and linkages stand in square brackets, end groups in braces. Plain capitals give the bases only. e = 2'-O-(2-methoxyethyl) (MOE); k = constrained ethyl (cEt); [5mC] = 5-methylcytosine; d = 2'-deoxy (DNA)

Experiments:
SOD1^G93A rats = assay: SOD1^G93A rats: weight loss onset and survival after intrathecal bolus; assay type: in vivo, rat; settings: 1000 μg intrathecal bolus, 65-day-old rats
Method: SOD1^G93A rats (Taconic Biosciences, model 2148) received a 30-μl intrathecal bolus injection via polyethylene catheter placed between the L3 and L5 vertebrae of the lumber spinal cord. […] All ASOs were diluted in aCSF. All treatment groups were sexual phenotype- and litter-matched to control for drift in copy count or sexual phenotype-induced variances.

SOD1 mRNA = SOD1 mRNA lowering in human neuroblastoma cell line SH-SY5Y; assay type: cell-based; settings: SH-SY5Y cells
people with ALS = settings: cited from earlier work
SOD1^G93A mice [1] = assay: SOD1^G93A mice: weight, rotarod, survival after i.c.v. bolus; assay type: in vivo, mouse; settings: 300 μg bolus at 50 and 94 days of age
Method: To investigate whether a SOD1-lowering ASO strategy could delay disease parameters, SOD1^G93A mice (B6.CgTg(SOD1*G93A)Gur/J) were infused Intracerebroventricular […] with bolus doses of 300 μg ASO1 at 50 and 94 days of age. Weight and performance on rotarod were tested weekly.

SOD1^G93A mice [2] = assay: SOD1^G93A mice: CMAP and neuromuscular junction innervation; assay type: in vivo, mouse; settings: for compound muscle action potential (CMAP): 100 μg intraventricularly once at 5 weeks of age, next 12 weeks
From the text: To test whether SOD1 reduction by ASO could affect markers of disease, […] in compound muscle action potential (CMAP), neuromuscular junction innervation, and serum phospho-neurofilament heavy chain (pNfH) levels. In SOD1^G93Amice, CMAP declines over time, preceding the loss of motor neurons.

[3] = test system: serum phospho-neurofilament heavy chain (pNfH); assay: SOD1^G93A mice: serum pNfH by ELLA microfluidic ELISA; assay type: in vivo, mouse; settings: single dose 300 μg at 5 weeks; 8 and 10 weeks of age; vs control ASO, FIG. 4
Method: pNfH increases in CSF and serum in ALS rodent models, human patients with ALS, and other neurodegenerative diseases. To look at phosphorylated neurofilament heavy chain levels in the serum, blood was collected at baseline (5 weeks) before i.e.v. injection, and then again at 8 and 10 weeks of age from the SOD1^G93A mutant mice injected once at 5 weeks of age with a single dose of 300 μg ASO1). pNfH serum levels were measured through the ELLA microfluidic ELISA platform (Protein Simple) according to the manufacturer's instructions. Briefly, a maximum of 100 μl blood was collected through facial vein puncture at the indicated time points. Serum samples were prepared by centrifugation of BD Vacutainer SST tubes (BD Diagnostics) and stored at −80° C. until used.

pNfH and NfL = assay: SAD/MAD clinical trial in SOD1 ALS patients: plasma and CSF pNfH and NfL; assay type: in vivo, human
Method: (§1) A double-blind, randomized, placebo-controlled, clinical trial was conducted in SOD1 ALS patients. The trial involved single and multiple ascending dose (SAD/MAD) studies. In the MAD portion, participants received 5 doses of study drug over approximately 3 months. Fifty adult participants with SOD1 mutation were randomized 3:1 (ASO: placebo) per cohort to receive 20 mg, 40 mg, 60 mg, or 100 mg of placebo or a SOD-1 decreasing ASO-ASO1 (SEQ ID NO:8).
Baseline pNfH and NfL levels were highest in fast progressing patients and correlated with disease activity (as measured by ALSFRS-R prerandomization slope). […] In FIGS. 7A-7D, overall placebo (n=12) is the solid line at, near, or above the 1.0 baseline measure throughout the study; overall ASO1 100 mg treatment (n=10) is the solid line declining below the 1.0 baseline measure throughout the study; fast progressing placebo (n=4) is the dotted line at, near, or above the 1.0 baseline measure throughout the study; and fast progressing ASO1 100 mg treatment (n=4) is the dotted line declining below the 1.0 baseline measure throughout the study. pNfH levels were assessed using the ProteinSimple™ Simple Plex Ella immunoassay. NfL levels were assessed using the Quanterix Simoa NfL Advantage assay.

SOD1 ALS patients = assay: SAD/MAD clinical trial in SOD1 ALS patients: ALSFRS-R and SVC; assay type: in vivo, human; settings: vs placebo
Method: as §1

CSF SOD1 protein = assay: SAD/MAD clinical trial in SOD1 ALS patients: CSF SOD1 concentration; assay type: in vivo, human; settings: 40 mg, 60 mg and 100 mg cohorts; maximal at 100 mg, Day 85
Method: as §1

ALS patients = settings: EMPOWER, 12 months, vs placebo
From the text: EMPOWER was a Phase 3 global randomized clinical trial (RCT) of the safety and efficacy of dexpramipexole in the treatment of ALS conducted at 81 academic medical centers enrolling 943 adults (see Cudkowicz M E et al., Lancet Neurol. 2013 November; 12(11):1059-67).
The subjects included in the EMPOWER study had to have a diagnosis of possible, probable, or definite ALS, have had ALS symptoms for fewer than 24 months, have an SVC value that was at least 65% of the predicted value, and no significant comorbidities.
In the study, the subjects were allocated in a 1:1 ratio to treatment with dexpramipexole or placebo for 12 months, […]

[4] = test system: plasma neurofilament heavy chain (NFH); settings: EMPOWER, vs placebo, FIG. 2
From the text: Determination of baseline as well as longitudinal plasma neurofilament heavy chain (NFH) concentrations in the clinical trial of dexpramipexole, EMPOWER, and assessment of their relationship to clinical outcomes including survival and the rates of decline of muscle strength (assessed by hand-held dynamometry [HHD]), slow vital capacity (SVC), and ALSFRS-R).
Plasma neurofilament heavy (NFH), measured using a NFH assay on the Ella, an automated microfluidic cartridge based immunoassay platform from Protein Simple.

For “CCGTCGCCCTTCAGCACGCA (antisense e[5mC]*e[5mC]*eG*eT*e[5mC]*dG*d[5mC]*d[5mC]*d[5mC]*dT*dT*d[5mC]*dA*dG*d[5mC]*eA*e[5mC]*eG*e[5mC]*eA) [compound 333611, reference compound]”, which “onset of weight loss, median” value (SOD1^G93A rats) is on record?
Its value is 139 days.

Which “SOD1 mRNA” value (SOD1 mRNA) does the source give for “TToAoATGTTTATCAoGoGAT (antisense eT*eTeAeA*dT*dG*dT*dT*dT*dA*dT*d[5mC]*kAkGeG*eA*eT) [ASO2]” here?
The value was “potently lowered SOD1 mRNA in a dose-dependent manner”.

And the “maintained weight, days longer than aCSF” value (SOD1^G93A rats)?
Its value is 67 days.

Which “disease progression / decline in daily functioning” value (people with ALS) does the source give for `Nc1nc2ccc(OC(F)(F)F)cc2s1` [riluzole] here?
Its value is “appears to slow the disease's progression in some people with ALS”.

And the side effects (people with ALS)?
Its side effects is “dizziness, gastrointestinal conditions and liver function changes”.

For “CAoGGoATACATTTCTACoAGoCT (antisense CAGGATACATTTCTACAGCT; modified backbone linkages at marked places, type not given here) [ASO1]”, which “SOD1 mRNA” value (SOD1 mRNA) is on record?
Its value is “potently lowered SOD1 mRNA in a dose-dependent manner”.

What about the “maintained weight, days longer than aCSF” value (SOD1^G93A rats) of the same compound?
Its value is 70 days.

What about the “maintained weight, days longer than inactive ASO” value (SOD1^G93A mice [1]) of the same compound?
The value was 26 days.

And the “median survival longer compared with inactive ASO” value (SOD1^G93A mice [1])?
The value was 37 days.

And the extension of survival (SOD1^G93A mice [1]; vs inactive ASO)?
Its extension of survival is 22%.

And the performance on rotarod (SOD1^G93A mice [1]; vs inactive ASO)?
The performance on rotarod was “performed better on rotarod”.

And the “compound muscle action potential (CMAP)” value (SOD1^G93A mice [2])?
The value was “maintained CMAP”.

What about the “innervation of the tibialis anterior muscles” value (SOD1^G93A mice [2]; single dose 300 μg at 5 weeks of age, FIG. 3) of the same compound?
The value was “maintained innervation”.

And the “serum pNfH levels” value [3]?
The value was “lower levels of pNfH”.

And the “plasma pNfH levels” value (pNfH and NfL; 100 mg over time vs placebo, FIG. 7A)?
Its value is “reduction”.

What about the “plasma NfL levels” value (pNfH and NfL; 100 mg over time vs placebo, FIG. 7B) of the same compound?
Its value is “reduction”.

And the “CSF NfL levels” value (pNfH and NfL; 100 mg over time vs placebo, FIG. 7D)?
The value was “reduction”.

What about the “CSF pNfH levels” value (pNfH and NfL; 100 mg vs placebo, overall) of the same compound?
The value was “Lowering of CSF pNfH; also recorded: reduction”.

What about the “CSF pNfH levels” value (pNfH and NfL; patients with fast-progressing SOD1 mutations, vs placebo) of the same compound?
Its value is “reduction in CSF pNfH levels”.

What about the clinical decline (SOD1 ALS patients; patients with fast-progressing SOD1 mutations) of the same compound?
The clinical decline was “slowing of clinical decline”.

And the “functional decline (ALSFRS-R)” value (SOD1 ALS patients; FIG. 6A)?
The value was “slowing of functional decline”.

And the “decline in respiratory function (SVC)” value (SOD1 ALS patients; FIG. 6B)?
Its value is “slowing of decline in respiratory function”.

What about the “CSF SOD1 concentrations, change from baseline” value (CSF SOD1 protein) of the same compound?
The value was “Reductions from baseline”.

For “CCoToAoTAGGACTATCCAoGoGoAA (antisense CCTATAGGACTATCCAGGAA; chemically modified at marked places, type not given here) [Inactive ASO (in vivo), reference compound]”, which “compound muscle action potential (CMAP)” value (SOD1^G93A mice [2]) is on record?
Its value is “reduced by more than half”.

And the “denervation of muscle endplates” value (SOD1^G93A mice [2]; tibialis anterior, FIG. 3)?
Its value is “more than 75%”.

For `CC1=NN(c2ccccc2)C(=O)C1` [edaravone], which “disease progression / decline in daily functioning” value (people with ALS) is on record?
Its value is “reduction the decline in daily functioning”.

And the side effects (people with ALS)?
The side effects was “bruising, gait disturbance, hives, swelling and shortness of breath”.

For `CCCN[C@@H]1CCc2nc(N)sc2C1` [dexpramipexole], which “ALS symptoms / clinical efficacy” value (ALS patients; listed as depramipexole) is on record?
Its value is “did not reduce ALS symptoms”.

What about the “ALS symptoms / clinical efficacy” value (ALS patients; listed as dexpramiexole) of the same compound?
Its value is “without clinical efficacy”.

What about the “longitudinal plasma NFH course” value [4] of the same compound?
Its value is “no difference”.
